Laboratory results as given in patent publication US9562066B2, “Oral therapy of necrotizing enterocolitis” (University of Pittsburgh—of the Commonwealth System of …, priority 2012, dated 2017).

How the values were obtained:
[1] = system: murine model for NEC (mNEC); assay: Murine model for NEC (mNEC), oral CpG-ODN during induction (Example 1); type: in vivo, mouse; details: for gross morphology: mNEC mice treated orally vs untreated mNEC mice, FIG. 5; for expression of TNFα in the intestines (quantitative RT-PCR) / disruption of the small intestine mucosa (H&E histology): mNEC mice; for expression of TNFα in the intestines (quantitative RT-PCR): oral 1 mg/kg twice per day in formula, day 4 after mNEC induction, FIG. 1; for disruption of the small intestine mucosa (H&E histology): FIG. 2A-F; for body weight: treated vs untreated mNEC mice
Protocol: (§1) A murine model for NEC (“mNEC”) was produced in newborn mice by 4 days of hypoxia and formula gavage (52), which leads to the induction of iNOS, reduced enterocyte proliferation, and disruption of the ileal mucosa (“mNEC” mice) as compared to control mice that were allowed to breast feed (“BF” mice”). Specifically, mNEC was induced in 10-d-old mice (12) using formula gavage [Similac Advance infant formula (Abbott Nutrition):Esbilac canine milk replacer, 2:1] 50 μL/g body weight, five times per day for 4 d, and hypoxia (5% O2, 95% N2) administered for 10 min twice daily for 4 d using a hypoxia chamber (Billups-Rothenberg Inc.). CpG-1 was […]-3′ (SEQ ID NO:6), containing phosphorothioate linkages, known in the art as CpG ODN 1826 (Coley Pharmaceutical Group, Ottawa, Ontario, Canada (Pfizer)). CpG-2 was 5′ […] 3′ (SEQ ID NO:9). CpG-1 or CpG-2 was administered at a dose of 1 mg/kg at a frequency of twice per day in the infant formula described above. Oral administration to breast-fed and NEC animals was achieved by gavage with a silastic foam tipped angiocatheter.
Quantitative RT-PCR was used to assess the effects of orally administered CpG-1 or CpG-2 on expression of the inflammatory cytokine tumor necrosis factor alpha (TNFα) in mNEC versus BF mice. Measurements were made on day 4 after mNEC induction. […] This effect was reflected by histologic evaluation, as depicted in FIG. 2A-F, where the disruption of the small intestine mucosa observed in untreated mNEC mice (FIG. 2B) is ameliorated in mNEC mice orally treated with CpG-1 or CpG-2 (FIGS. 2C and 2D, respectively) to resemble the mucosa of BF control (FIG. 2A).

[2] = system: experimental NEC in neonatal mice; assay: Experimental NEC in neonatal mice (formula feeding and hypoxia), oral CpG (Example 2); type: in vivo, mouse
Protocol: (§2) The effect of CpG-ODN 5′-[…]-3′ (SEQ ID NO:6; ODN 1826) on inhibiting NEC in a murine NEC model in vivo, and in ex vivo human samples from infants undergoing intestinal resection for active NEC or at the time of stoma closure was examined. To determine the level of NEC inhibition, the extent of LPS signaling was determined by the degree of expression of pro-inflammatory cytokines iNOS and TNFα by Quantitative real-time PCR (qRT-PCR).
Committee of the University of Pittsburgh. Swiss Webster mice were obtained from Charles River Laboratories. NEC was induced in 7-10 day old mice as described by Leaphart et al. (21) and Afrazi et al. (54) using formula gavage (a 2:1 ratio of Similac Advance infant formula (Ross Pediatrics):Esbilac canine milk replacer) administered five times/day, along with hypoxia (5% O2, 95% N2) for 10 min in a hypoxic chamber (Billups-Rothenberg, Inc., Del Mar, Calif.) twice daily, for 4 days. This protocol results in the development of patchy necrosis involving the small intestine, which is similar to human NEC, with an increase in circulating cytokines that mimics that observed in human NEC (40). CpG was administered via the oral route at a concentration of 1 mg/kg/day, which included […] of pretreatment prior to the start of the NEC model. Disease severity was determined on histological sections of the terminal ileum by a pediatric pathologist blinded to the study condition according to a scoring system from 0 (normal) to 3 (severe), as described by Leaphart et al. (21).
(§3) The extent of LPS signaling was determined by the degree of pro-inflammatory cytokines, iNOS, and TNFα by Quantitative real-time PCR (qRT-PCR). qRT-PCR was performed using the Bio-Rad CFX96 Real-Time System (Biorad, Hercules, Calif.) using the primers listed in the table below.
Statistical analysis was performed using SPSS 13.0 software. ANOVA was used for comparisons for experiments involving more than two experimental groups. Two-tailed student's t-test was used for comparison for experiments consisting of two experimental groups. For analysis of the severity of NEC, chi-square analysis was performed.

[3] = system: murine model for NEC (mNEC); assay: Pre-treatment with CpG-1 48 hours prior to attempted induction of mNEC; type: in vivo, mouse; details: administered 48 hours prior to attempted induction of mNEC
Protocol: FIG. 6A-C. Effects of pre-treatment of mice prior to induction of NEC. (A) Mucosal iNOS expression (as measured by RT-PCR) in BF controls, untreated mNEC animals, mice pre-treated with CpG-1 for 48 hours prior to attempted induction of NEC (“mNEC Cpg1”) and BF mice treated with CpG-1 for 48 hours. (B) Mucosal TNFα expression (as measured by RT-PCR) in BF controls, untreated mNEC animals, mice pre-treated with CpG-1 for 48 hours prior to attempted induction of NEC (“mNEC Cpg1”) and BF mice treated with CpG-1 for 48 hours. (C) Weight at the time of euthanasia of BF controls, untreated mNEC animals, mice pre-treated with CpG-1 for 48 hours prior to attempted induction of NEC (“mNEC Cpg1”) and BF mice treated with CpG-1 for 48 hours.
as §1

[4] = system: TLR4-mediated inflammation in human ex vivo intestinal tissue; assay: LPS-induced (TLR4-mediated) inflammation in human ex vivo control and NEC intestinal tissue, qRT-PCR; type: cell-based; details: CpG 1 uM, LPS 50 ug/ml 3 hours
Protocol: as §2
All human tissue was obtained and processed as discarded tissue via waiver of consent with approval from the University of Pittsburgh Institutional Review Board and in accordance with the University of Pittsburgh anatomical tissue procurement guidelines. Human tissue was obtained from infants undergoing intestinal resection for active NEC or at the time of stoma closure (healed NEC at the time of stoma closure). After initial review by the duty pathologist to ensure that adequate diagnostic information was obtained from the gross tissue specimen, the intestinal resection was divided into multiple pieces, and treated in triplicate with media alone, LPS 50 ug/ml, CpG (1 uM) alone or LPS+CpG as described by Neal et al. (55). After 3 hours of treatment, tissue was processed for qRT-PCR, and assessed for the expression of IL1β, TLR4, iNOS or IL-6.
as §3

NFκB = NFκB activation in intestinal mucosa of NFκB-GFP transgenic newborn mice with mNEC, confocal microscopy; type: in vivo, mouse; details: mNEC mice vs saline-treated mNEC, FIG. 4A-D
Excerpt: FIG. 4A-D. Confocal microscopy showing extent of NFκB activation in intestinal mucosa of newborn transgenic mice that express NFκB-GFP. Nuclei are indicated by areas of blue fluorescence. NFκB is detected by a red fluorescent anti-GFP antibody, and is more punctate. Newborn mice were either (A) BF controls treated with saline; (B) mNEC mice treated with saline; or (C) mNEC mice treated with CpG-2. (D) is graphical depiction of results, showing the relative red (GFP) pixel intensity for each animal.
A murine model for NEC (“mNEC”) was produced in newborn mice by 4 days of hypoxia and formula gavage (52), which leads to the induction of iNOS, reduced enterocyte proliferation, and disruption of the ileal mucosa (“mNEC” mice) as compared to control mice that were allowed to breast feed (“BF” mice”). Specifically, mNEC was induced in 10-d-old mice (12) using formula gavage [Similac Advance infant formula (Abbott Nutrition):Esbilac canine milk replacer, 2:1] 50 μL/g body weight, five times per day for 4 d, and hypoxia (5% O2, 95% N2) administered for 10 min twice daily for 4 d using a hypoxia chamber (Billups-Rothenberg Inc.). CpG-1 was […]-3′ (SEQ ID NO:6), containing phosphorothioate linkages, known in the art as CpG ODN 1826 (Coley Pharmaceutical Group, Ottawa, Ontario, Canada (Pfizer)). CpG-2 was 5′ […] 3′ (SEQ ID NO:9). […]

[5] = control tissue (healed NEC at stoma closure), FIG. 8A

CpG ODN 1826 [CpG-1]
gross morphology [1]: much more robust | inducible nitric oxide synthase (iNOS) level (qRT-PCR) ([1]; mNEC mice versus BF controls, oral CpG, FIG. 3B): substantially reduced | expression of TNFα in the intestines (quantitative RT-PCR) [1]: brought the levels of TNFα in mNEC animals down to approach the level in BF controls | disruption of the small intestine mucosa (H&E histology) ([1]; oral treatment): ameliorated | body weight [1]: higher body weight | expression of iNOS in the intestinal mucosa (qRT-PCR) ([2]; oral 1 mg/kg, formula-fed NEC mice, FIG. 7B(i), p<0.05 FF+CpG vs FF): reduced | expression of IL-6 in the intestinal mucosa (qRT-PCR) ([2]; oral 1 mg/kg, formula-fed NEC mice, FIG. 7B(ii), p<0.05 FF+CpG vs FF): reduced | NEC severity score ([2]; oral 1 mg/kg, score 0 (normal) to 3 (severe), FIG. 7B(iii)): reduced | intestinal inflammation (ileum photomicrographs and gross images) ([2]; oral 1 mg/kg/day incl. 4 days pretreatment, formula-fed NEC mice, FIG. 7A): attenuates intestinal inflammation | mucosal expression of iNOS (RT-PCR) ([3]; FIG. 6A): reduced almost to baseline levels | mucosal expression of TNFα (RT-PCR) ([3]; FIG. 6B): reduced almost to baseline levels | weight at the time of euthanasia ([3]; FIG. 6C): approached controls | LPS-induced increase in expression of IL1β (qRT-PCR) [4, 5]: reduced | LPS-induced increase in expression of TLR4 (qRT-PCR) [4, 5]: reduced | LPS-induced expression of IL-6 (qRT-PCR) ([4]; human NEC tissue, FIG. 8B): reduced | LPS-induced expression of iNOS (qRT-PCR) ([4]; human NEC tissue, FIG. 8B): reduced

CpG-2: CpG-ODN 5′ TCGTCGTTTTGTCGTTCCTGACGTT 3′ (SEQ ID NO:9) (listed as DNA, chemistry not given here)
disease severity ([1]; mNEC animals, oral treatment, FIG. 3A): trended towards but did not reach statistical significance | gross morphology [1]: much more robust | expression of TNFα in the intestines (quantitative RT-PCR) [1]: brought the levels of TNFα in mNEC animals down to approach the level in BF controls | disruption of the small intestine mucosa (H&E histology) ([1]; oral treatment): ameliorated | body weight [1]: higher body weight | nuclear localization of NFκB (punctate red fluorescence) (NFκB): largely absent
